In PubChem BioAssay (NCI):
Values joined by “and” are separate entries in the source; they are usually repeats but may differ in a detail not shown here. Equal entries are not always repeated.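 Assay format: 96-well plates, 48-hour exposure. At the GI50, growth is halved. Definition used: TGI = concentration required for complete inhibition of growth.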

Key:
Assay in all cases: DTP human tumour cell line panel, 48 h
EKVX NSCLC = test system: EKVX NSCLC
NCI-H226 lung = test system: NCI-H226 lung
NCI/ADR-RES ovarian = test system: NCI/ADR-RES ovarian
A498 renal = test system: A498 renal
HCC-2998 colon = test system: HCC-2998 colon
OVCAR-4 ovarian = test system: OVCAR-4 ovarian
BT-549 breast = test system: BT-549 breast
MDA-MB-231 breast = test system: MDA-MB-231 breast
SR leukemia = test system: SR leukemia
SNB-75 CNS = test system: SNB-75 CNS

| Compound | GI50 (EKVX NSCLC) [µM] | TGI (EKVX NSCLC) [µM] | GI50 (NCI-H226 lung) | TGI (NCI-H226 lung) | GI50 (NCI/ADR-RES ovarian) | TGI (NCI/ADR-RES ovarian) | GI50 (A498 renal) [µM] | TGI (A498 renal) [µM] | GI50 (HCC-2998 colon) | TGI (HCC-2998 colon) | GI50 (OVCAR-4 ovarian) | TGI (OVCAR-4 ovarian) | GI50 (BT-549 breast) [µM] | TGI (BT-549 breast) | GI50 (MDA-MB-231 breast) | TGI (MDA-MB-231 breast) | GI50 (SR leukemia) | TGI (SR leukemia) | GI50 (SNB-75 CNS) [µM] | TGI (SNB-75 CNS) [µM] |
| --- | --- | --- | --- | --- | --- | --- | --- | --- | --- | --- | --- | --- | --- | --- | --- | --- | --- | --- | --- | --- |
| COc1ccc2c(c1OC)-c1c(c3ccc([N+](=O)[O-])cc3c(=O)n1CCCN=[N+]=[N-])C2=O | > 100 | > 100 | 22.8 µM | 99.3 µM | 12.2 µM | > 100 µM | 82.3 | > 100 | 79.9 µM | > 100 µM | > 100 µM | > 100 µM | > 100 | > 100 µM | > 100 µM | > 100 µM | – | – | – | – |
| Cc1[nH]nc2c1N=C(c1ccccc1F)c1cc(C#N)ccc1N2 | – | – | 0.322 µM | 4.11 µM | 4.72 µM | > 25 µM | 0.146 | 1.08 | 3.58 µM | 15.9 µM | 3.02 µM | 8.01 µM | 2.65 | 12.1 µM | 2.59 µM | 11.7 µM | 0.0641 µM | > 18 µM | 0.036 | 0.717 |
| C#CCOc1ccc2ncnc(Nc3ccc(NC(=O)CCl)cc3)c2c1 | 10.9 | 33.2 | 17.8 µM | 68.6 µM | 3.76 µM | 36.4 µM | 10.6 | 24 | 13.7 µM | 27.1 µM | 11.9 µM | 39.2 µM | 3.81 | 16.6 µM | 4.51 µM | 20 µM | 2.69 µM | 15 µM | – | – |
| Cc1ccc2[nH]c(C(=O)NN3C(=O)CSC34CCCC(C)C4)c(-c3ccccc3)c2c1 (configuration not stated) | 24.2 | 58.8 | 18.4 µM | 35.2 µM | – | – | 17.5 | 36.3 | 14.5 µM | 28.8 µM | 18.4 µM | 40.2 µM | 19.5 | 36.5 µM | 17.2 µM | 34 µM | – | – | 17.1 | 34.6 |
| CCCCSCc1nc2nc(Cl)c(Cl)nc2[nH]1 | – | > 100 | – | 62.7 µM | – | 90.8 µM | – | 60.6 | – | – | – | > 100 µM | – | 79.4 µM | – | 79.2 µM | – | 52.3 µM | – | 57.5 |
| COc1ccc(OC)c(-c2cc(-c3ccccc3)nn2-c2ccc(S(N)(=O)=O)cc2)c1 | 18.1 | 39.1 | 15 µM | 33.6 µM | 16.2 µM | 31.8 µM | – | – | 23 µM | 37.9 µM | – | – | 17.7 | 38.9 µM | 11.1 µM | 27 µM | 2.82 µM | > 100 µM | – | – |
| CCOC(=O)c1cc2cc(NC(=O)c3cc4cc([N+](=O)[O-])ccc4n3C)ccc2n1C | 20 | > 100 | 12 µM | 46.6 µM | 16.8 µM | 45.3 µM | – | – | – | – | – | – | 11.6 | 35.3 µM | 2.69 µM | 16.3 µM | – | – | – | – |
| CC(C)c1cc(CNc2nc(Nc3cc(C4CC4)[nH]n3)cc(N3CCN(C)CC3)n2)on1 | 0.587 | > 10 | 0.363 µM and 0.0576 µM | 4.18 µM and 3.6 µM | > 10 µM and 6.84 µM | > 10 µM and 25.4 µM | – | – | 2.79 µM and 0.343 µM | > 10 µM and 6.39 µM | 2.14 µM and 0.731 µM | > 10 µM and 4.57 µM | – | > 10 µM and 1.4 µM | 1.29 µM and 0.151 µM | > 10 µM and 5.42 µM | 0.0422 µM and < 0.0198 µM | 3.42 µM and 1.47 µM | – | – |
| O=C(Nc1cccc(C(F)(F)F)c1)c1cccc(NC2=C(Cl)C(=O)N(Cc3ccccc3)C2=O)c1 | 68.5 | > 100 | 4.51 µM | 65.5 µM | 18.1 µM | 53.5 µM | 40.3 | 90.7 | 16.8 µM | 32.7 µM | 52.2 µM | > 100 µM | 18.8 | 64.2 µM | 5.38 µM | > 100 µM | – | – | 57.3 | > 100 |
| CN1CCN(Cc2ccc(NC(=O)c3[nH]ncc3Nc3ncnc4sccc34)cc2)CC1 | 0.425 | 3.53 | 0.169 µM | > 100 µM | 1.07 µM | > 100 µM | 0.0172 | 1.12 | – | – | 0.326 µM | 3.92 µM | 1.23 | 5.56 µM | – | – | 0.219 µM | 0.73 µM | 0.023 | 2.3 |
| CC(F)(F)c1cc(F)ccc1-c1sc2cc(O)ccc2c1Oc1ccc(/C=C/C(=O)O)cc1 | 10.6 | 39.6 | 5.78 µM | 25 µM | 6.66 µM | 40.1 µM | – | – | 12.7 µM | 30.6 µM | 12.1 µM | 33.2 µM | 6.46 | 27 µM | 14.3 µM | 35 µM | 3.66 µM | > 100 µM | 3.52 | 19.8 |
| COC(=O)[C@@H](Cc1c[nH]c2ccccc12)NC(=O)/C=C/c1ccccc1 | – | – | 6.06 µM | > 100 µM | 2.53 µM | > 100 µM | 0.511 | 6.75 | 2.65 µM | 8.56 µM | 5.71 µM | > 100 µM | 4.1 | 71.8 µM | 2.93 µM | 8.63 µM | 2.98 µM | 11.6 µM | 2.42 | > 100 |
| Oc1ccc(Br)cc1/C=N/NC(=S)NC12CC3CC(CC(C3)C1)C2 | – | – | 1.95 µM | 4.8 µM | 2.71 µM | 7.89 µM | 2.18 | 7.19 | 1.95 µM | 4.6 µM | 1.25 µM | 4.09 µM | 4.36 | 15.7 µM | 1.95 µM | 5.54 µM | 0.682 µM | 3.47 µM | 2.03 | 7.15 |
| CC(C)=CCC/C(C)=C/CC/C(=C/COP(=O)(OCc1ccc([N+](=O)[O-])o1)N(C)CCCCCl)CC=C(C)C (configuration not stated) | 3.73 | 19.8 | – | – | 6.11 µM | 21.3 µM | – | – | 0.0597 µM | 2.45 µM | 11.9 µM | 48.3 µM | 2.31 | 7 µM | 8.58 µM | 22.8 µM | 3.02 µM | > 100 µM | 12.1 | 36.8 |
| N#CCC(=O)N/N=C1/C(=O)NC(=O)C(=O)C1c1nc2ccccc2s1 (configuration not stated) | – | > 100 | – | > 100 µM | – | – | – | > 100 | – | > 100 µM | – | > 100 µM | – | – | – | – | – | > 100 µM | – | > 100 |
